Data as given in ChEMBL document CHEMBL5052834, “CXCL10 Inhibitors” (2021).
Active and inactive are the calls of the source. The calls are words filed in the database; no cut-off is given here.

Assays:
Keratinocyte [1] = test: Inhibition of CXCL10 gene expression in LPS-stimulated human keratinocytes; format: functional, cell-based
Keratinocyte [2] = test: Inhibition of CXCL10 gene expression in TNF-alpha-stimulated human keratinocytes; format: functional, cell-based
Keratinocyte [3] = test: Inhibition of CXCL10 protein secretion in TNF-alpha-stimulated human keratinocytes measured by ELISA assay; format: functional, cell-based
Keratinocyte [4] = test: Inhibition of CXCL10 protein secretion in poly (I:C)-stimulated human keratinocytes measured by ELISA assay; format: functional, cell-based
Keratinocyte [5] = test: Inhibition of CXCL10 protein secretion in IFN-gamma-stimulated human keratinocytes measured by ELISA assay; format: functional, cell-based
Keratinocyte [6] = test: Inhibition of CXCL10 protein secretion in LPS-stimulated human keratinocytes measured by ELISA assay; format: functional, cell-based
Keratinocyte [7] = test: Inhibition of CXCL10 gene expression in poly (I:C)-stimulated human keratinocytes; format: functional, cell-based
Rattus norvegicus [8] = species: Rattus norvegicus; test: Antiangiogenic activity in streptozotocin (STZ)-induced diabetes induced retinopathy model of rat assessed as decrease in retinal vascular permeability measured by Evans blue dye metho; format: functional, organism-based
Mus musculus = test: In vivo inhibition of CXCL10 gene expression in experimental autoimmune uveitis (EAU) model of C57BL/6 mouse; format: functional, organism-based
Rattus norvegicus [9] = species: Rattus norvegicus; test: Inhibition of CXCL10 gene expression in streptozotocin (STZ)-induced diabetes induced retinopathy model of rat assessed as decrease in amount of CXCL10 in retina measured by ELISA assay; format: functional
Keratinocyte [10] = test: Inhibition of CXCL10 gene expression in IFN-gamma-stimulated human keratinocytes; format: functional, cell-based

For COc1c(C)cnc(CS(=O)(=O)c2nc3cc(OC(F)F)ccc3[nH]2)c1C, the inhibition (Keratinocyte [1]) was “Active”.

In the case of COc1ccnc(CC(O)c2nc3cc(OC(F)(F)F)ccc3[nH]2)c1C (stereo not drawn), the inhibition (Keratinocyte [2]) is reported as “Active”.

With COCCCOc1ccnc(C[S+]([O-])c2nc3ccccc3[nH]2)c1C (stereo not drawn) the inhibition (Keratinocyte [1]) was “Active”, the inhibition (Keratinocyte [3]) was “Active” and the inhibition (Keratinocyte [4]) was “Active”.

For COc1ccnc(CS(=O)(=O)c2nc3cc(OC(F)F)ccc3[nH]2)c1OC, the inhibition (Keratinocyte [5]) was “Active”.

COc1c(C)cnc(C[S@@](=O)c2nc3ccccc3[nH]2)c1C was tested, and the inhibition (Keratinocyte [3]) was “Active”.

With COc1c(C)cnc(CS(=O)(=O)c2nc3cc(-n4cccc4)ccc3[nH]2)c1C the inhibition (Keratinocyte [4]) was “Active”.

COc1c(C)cnc(C[S@@+]([O-])c2nc3cc(OC(F)F)ccc3[nH]2)c1C was tested, and the inhibition (Keratinocyte [6]) was “Active”.

In the case of COc1ccc2[nH]c([S+]([O-])Cc3ncc(C)c(OC)c3C)nc2c1 (stereo not drawn), the inhibition (Keratinocyte [7]) is reported as “Active”, the Activity (Rattus norvegicus [8]) is reported as “Active” and the inhibition (Mus musculus) is reported as “Active”. For the same molecule, the inhibition (Keratinocyte [2]) was “Active”, the inhibition (Keratinocyte [6]) was “Active” and the inhibition (Rattus norvegicus [9]) was “Active”. For the same molecule, the inhibition (Keratinocyte [5]) was “Active” and the inhibition (Keratinocyte [4]) was “Active”.

For COCCCOc1ccnc(CS(=O)(=O)c2nc3ccccc3[nH]2)c1C, the inhibition (Keratinocyte [5]) was “Active”.

COc1c(C)cnc(C[S@+]([O-])c2nc3cc(OC(F)F)ccc3[nH]2)c1C was tested, and the inhibition (Keratinocyte [1]) was “Active”.

Cc1cnc(CC(O)c2nc3cc(OC(F)F)ccc3[nH]2)c(C)c1OCC(F)(F)F (stereo not drawn) was tested, and the inhibition (Keratinocyte [5]) was “Active”.

COc1ccnc(CC(O)c2nc3ccccc3[nH]2)c1C (stereo not drawn) was tested, and the inhibition (Keratinocyte [7]) was “Active” and the inhibition (Keratinocyte [4]) was “Active”.

For COc1ccc2[nH]c([S@+]([O-])Cc3ncc(C)c(OC)c3C)nc2c1, the inhibition (Keratinocyte [10]) was “Active”.

With Cc1c(OCC(F)(F)F)ccnc1CS(=O)(=O)c1nc2cc(-n3cccc3)ccc2[nH]1 the inhibition (Keratinocyte [2]) was “Active”.

For Cc1c(OCC(F)(F)F)ccnc1CS(=O)(=O)c1nc2cc(OC(F)F)ccc2[nH]1, the inhibition (Keratinocyte [1]) was “Active” and the inhibition (Keratinocyte [10]) was “Active”.

In the case of COc1ccc2[nH]c(C(=O)Cc3ncc(C)c(OC)c3C)nc2c1, the inhibition (Keratinocyte [7]) is reported as “Active”.

With Cc1c(OCC(F)(F)F)ccnc1CC(C)(O)c1nc2cc(OC(F)F)ccc2[nH]1 (stereo not drawn) the inhibition (Keratinocyte [6]) was “Active”.

In the case of COc1ccnc(CS(=O)(=O)c2nc3ccccc3[nH]2)c1OC, the inhibition (Keratinocyte [7]) is reported as “Active”.

In the case of Cc1cnc(CC(=O)c2nc3ccccc3[nH]2)c(C)c1OCC(F)(F)F, the inhibition (Keratinocyte [4]) is reported as “Active”.

Cc1c(OCC(F)(F)F)ccnc1C[S+]([O-])c1nc2ccccc2[nH]1 (stereo not drawn) was tested, and the inhibition (Keratinocyte [1]) was “Active”, the inhibition (Keratinocyte [2]) was “Active” and the inhibition (Keratinocyte [6]) was “Active”. The inhibition (Keratinocyte [10]) was “Active”.

With COc1ccnc(C[S+]([O-])c2nc3cc(OC(F)F)ccc3[nH]2)c1OC (stereo not drawn) the inhibition (Keratinocyte [7]) was “Active”, the inhibition (Keratinocyte [1]) was “Active” and the Activity (Rattus norvegicus [8]) was “Active”. For the same molecule, the inhibition (Keratinocyte [2]) was “Active”, the inhibition (Rattus norvegicus [9]) was “Active” and the inhibition (Keratinocyte [5]) was “Active”.

In the case of COc1ccc2[nH]c(S(=O)(=O)Cc3ncc(C)c(OC)c3C)nc2c1, the inhibition (Keratinocyte [6]) is reported as “Active”.

For COc1ccc2[nH]c([S@@+]([O-])Cc3nccc(OC)c3C)nc2c1, the inhibition (Keratinocyte [3]) was “Active” and the inhibition (Keratinocyte [10]) was “Active”.

In the case of COCCCOc1ccnc(CC(=O)c2nc3cc(OC(F)(F)F)ccc3[nH]2)c1C, the inhibition (Keratinocyte [7]) is reported as “Active”.

With COc1c(C)cnc(CC(O)c2nc3cc(-n4cccc4)ccc3[nH]2)c1C (stereo not drawn) the inhibition (Keratinocyte [10]) was “Active”.

COc1ccnc(CC(C)(O)c2nc3cc(-n4cccc4)ccc3[nH]2)c1OC (stereo not drawn) was tested, and the inhibition (Keratinocyte [5]) was “Active”.

In the case of COc1ccnc(CC(C)(O)c2nc3cc(OC(F)(F)F)ccc3[nH]2)c1OC (stereo not drawn), the inhibition (Keratinocyte [3]) is reported as “Active”.

With COCCCOc1ccnc(C[S@+]([O-])c2nc3cc(OC(F)(F)F)ccc3[nH]2)c1C the inhibition (Keratinocyte [6]) was “Active”.

For COc1ccc2[nH]c(S(=O)(=O)Cc3nccc(OC)c3C)nc2c1, the inhibition (Keratinocyte [10]) was “Active”.

With COc1c(C)cnc(CC(O)c2nc3ccccc3[nH]2)c1C (stereo not drawn) the inhibition (Keratinocyte [2]) was “Active”.

COc1ccnc(C[S+]([O-])c2nc3cc(-n4cccc4)ccc3[nH]2)c1C (stereo not drawn) was tested, and the inhibition (Keratinocyte [3]) was “Active” and the inhibition (Keratinocyte [4]) was “Active”.

For COc1ccnc(CC(O)c2nc3cc(OC(F)(F)F)ccc3[nH]2)c1OC (stereo not drawn), the inhibition (Keratinocyte [3]) was “Active”.
